These results are taken from patent publication US20260373103A1, “COMPOSITIONS AND METHODS FOR PREVENTING CARDIOMYOPATHY” (OHIO STATE INNOVATION FOUNDATION, priority 2022, published 2026).

Structures are written as SMILES.

In data set [1] the test system is HeLa-Parkin and HeLa-Parkin cells expressing USP30. As to the kind of experiment: Oxygen consumption, Seahorse assay. In kind it is cell-based. The protocol: Measurement of intact cellular respiration was performed using the Seahorse XFe96 Analyzer as previously described. In brief, 2×10^4 cells per well were seeded in the Seahorse XF Cell Culture Microplate (Agilent) using high-glucose DMEM at 37 °C, with a humidified atmosphere of 5% CO2, overnight. And a sensor cartridge was hydrated in Seahorse XF Calibrant in a non-CO2 incubator overnight at 37 °C. The high-glucose DMEM in Cell Culture Microplate was changed to warmed assay medium and placed into a 37 °C non-CO2 incubator for 45 minutes prior to the assay. Oligomycin (1.5 μM/well), FCCP (1 μM/well) and Antimycin A (0.5 μM/well) were supplemented at 18 minutes, 36 minutes and 54 minutes, respectively. The results were analyzed using the Seahorse Wave software.

Data set [2] is described as follows: Plasma pharmacokinetics after i.p. injection. In kind it is in vivo. The conditions noted are these: mice, 25 mg/kg i.p. As to the method: (§1) ST-539 was dissolved into 1% DMSO in Sesame oil and injected intraperitoneally (i.p.) at doses of 25 mg/kg. Serial blood samples were collected at 0.083, 0.25, 0.5, 1, 2, 4 and 8 hours post dosing. Mice were euthanized at 24 hours post dosing. A terminal blood sample was collected by cardiac puncture followed by harvesting the brain and heart. Transcardial perfusion was performed prior to brain collection. The blood samples were placed in microtubes pretreated with K2EDTA as an anticoagulant and kept on ice until centrifugation. The tissue samples were rinsed using cold distilled water to remove blood, blotted dry, weighed and stored on dry ice until LC/MS/MS analysis. Plasma was transferred into polypropylene tubes or 96-well plates, quick frozen on dry ice, and stored at −70±10 °C until LC/MS/MS analysis.

A short description of data set [3]: Tissue concentrations 24 h post-dose. The class given is in vivo, Male C57BL/6 Mice. As to the method:
as §1

Data set [4] has as its system HeLa-Parkin or HeLa-Parkin/USP30 cells. As to the kind of experiment: Mitochondrial membrane potential (TMRM signal). In kind it is cell-based. The note with it: ST-539 3 to 10 μg/ml.
Experimental: ΔΨm was measured using a fluorescence microplate reader (BioTek Instruments) in cells preincubated with Tetramethylrhodamine methyl ester (TMRM, Thermo Scientific) following manufacturer's instructions. Cells were washed in PBS before resuspension in Hank's balanced salt solution (HBSS; 156 mM NaCl, 3 mM KCl, 2 mM MgSO4, 1.25 mM KH2PO4, 2 mM CaCl2), 10 mM glucose and 10 mM HEPES; pH adjusted to 7.35 with NaOH) (1.0×10^6 cells/ml) containing 50 nM TMRM. For each individual experiment, average TMRM fluorescence was normalized to control cells.
We initially analyzed mitochondrial function using Tetramethylrhodamine (TMRM), a dye requiring mitochondrial membrane potential to accumulate within the mitochondria.
In the next data set the test system is hippocampus of the brain. As to the kind of experiment: In vivo mitophagy in hippocampus of the brain. Also on record: species or system mouse. The conditions noted are these: 25 mg/kg/day i.p. for 5 days. The protocol:
Fluorescent samples were examined with a Zeiss LSM 780 confocal microscope (Carl Zeiss MicroImaging). As previously described^2, fluorescence of mt-Keima was imaged in two channels via two sequential excitations (458 nm, green; 561 nm, red) and using a 570- to 695-nm emission range. Confocal experiments for parkin translocation were performed using a HeLa cell line stably expressing YFP-Parkin plated on 35 mm coverglass #1.5 chamber dishes (MatTek). These cells were treated for 2 h with DMSO as vehicle control or with A/O. YFP was imaged with a 514-nm excitation and 520- to 570-emission filters. Representative confocal images were processed using Imaris software by contrast linear stretch only. Calculation of mitophagy based on mt-Keima signal was performed using Zeiss ZEN software as previously described^2. The average of four images from each tissue sample was taken, and the values were normalized to the average value seen in the controls, assigned the value of one.
The mt-Keima mouse. […] The mice were lightly anesthetized with isoflurane and the ejection fraction, fractional shortening, and ventricular chamber dimensions were determined using 2-D-guided M mode images. Ejection fraction, fractional shortening, ventricular chamber dimensions, and left ventricular mass were calculated automatically using the VevoLAB program. […]

In data set [5] the test system is Human induced pluripotent stem cell-derived cardiomyocytes. The experiment in a line: Doxorubicin-induced cell death in hiPSC-CMs. The conditions noted are these: 48 hours, doxorubicin+ST-539. The class given is cell-based.
Setting [6] is: 24 Hours Post-dose, 25 mg/kg i.p., mean.

As for `CC(C)(C)NS(=O)(=O)c1cccc2c(NC(=O)C(Cc3ccccc3)NC(=O)c3ccccc3)cccc12` (centres unmarked) [ST-539], the “basal and maximal respiration” value in data set [1] (24 h ST-539, high dose) is recorded as “slight increase”. For the same compound, in data set [1] (ST-539, both cell lines), the “basal respiration and spare respiratory capacity” value is “Slightly increased”. In data set [2], the “area under the plasma drug concentration-time curve (AUC)” value was ~ 4.2 μg·h/ml, the “half-life (T1/2)” value is on record as “about 3.85 hr”, the “maximum plasma concentration (Cmax)” value is “about 1.4 μg/ml” and the “time to reach peak plasma concentration (Tmax)” value was 1.33 h. In addition, in data set [2] (plasma), the AUC0-inf came out at 4240 ng·h/mL, the AUC0-last was found to be 4162 ng·h/mL, the Cmax (usually the highest concentration seen after dosing) was 1427 ng/mL and the MRT0-inf is 4.27 h. Moreover, in data set [2] (plasma), the MRT0-last came out at 3.86 h; the T1/2 is on record as 3.85 h; the Tlast was determined as 24.0 h; the Tmax (in general, the time from dosing to the highest level) is listed as 1.33 h. In data set [3] (setting [6]), the Brain concentration was 17.4 ng/g and the Heart concentration was found to be 37.0 ng/g. Moreover, the “ST-539 detected in mouse brain homogenate” value in data set [3] (24 h post-dose) is reported as “modest concentrations”. Besides, the “TMRM staining (mitochondrial membrane potential)” value in data set [4] was “did not block TMRM staining”. Besides, the “mitophagic flux in hippocampus” value in the data set with hippocampus of the brain is recorded as “remains unchanged”. The “doxorubicin-induced cell death (percent survival of hiPSC-CMs)” value in data set [5] is on record as “reduces doxorubicin-induced cell death”.
